In paper PMC8115384 (Cell, 2021):
Residue numbers refer to the chain shown, from its start. Like-named read-outs stand apart in the source and are kept apart here.

How the values were obtained:
[1] = biological target: T1, Full-length zebrafish α1 GlyR (Danio rerio, UniProt O93430); assay: Whole cell dose-response, FL GlyR; format: cell-based
T1 sequence (O93430 25-444): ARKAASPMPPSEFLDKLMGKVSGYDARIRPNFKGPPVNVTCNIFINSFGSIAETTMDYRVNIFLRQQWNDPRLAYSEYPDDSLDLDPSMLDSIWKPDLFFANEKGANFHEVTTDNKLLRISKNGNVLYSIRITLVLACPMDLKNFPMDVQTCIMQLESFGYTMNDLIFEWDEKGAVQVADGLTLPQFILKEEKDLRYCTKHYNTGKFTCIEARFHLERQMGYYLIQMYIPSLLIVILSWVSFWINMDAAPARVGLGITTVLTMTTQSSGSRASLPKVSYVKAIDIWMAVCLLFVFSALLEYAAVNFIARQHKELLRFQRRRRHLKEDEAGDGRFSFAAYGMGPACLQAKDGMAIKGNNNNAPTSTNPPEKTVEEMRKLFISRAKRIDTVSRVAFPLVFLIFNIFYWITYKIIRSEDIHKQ

[2] = biological target: T2, F175Y/Y177F variant (YGF) of zebrafish α1 GlyR (Danio rerio, UniProt O93430, F183Y/Y185F); assay: Cell-attached single-channel recording, cluster open probability, YGF mutant; format: cell-based; conditions: HEK293A cells, single-channel clusters, 100 mM GABA
T2 sequence (O93430 25-444 F183Y/Y185F): T1 sequence (O93430 25-444) with F159Y, Y161F

[3] = biological target: T1, Full-length zebrafish α1 GlyR; assay: Macroscopic currents in outside-out patches, fast agonist application
[4] = biological target: T2, F175Y/Y177F variant (YGF) of zebrafish α1 GlyR; assay: Whole cell dose-response, YGF mutant; format: cell-based; conditions: HEK293A, ± SEM, n≥6 cells
[5] = test system: GlyR Ser294 to cysteine mutant; conditions: S294C vs wild type; ref Lynch et al., 2001; cited from earlier work
[6] = biological target: T3, YYY mutant (F115Y/F175Y/F223Y) of GlyR (Danio rerio, UniProt O93430, F123Y/F183Y/F231Y); assay: Single-channel open probability, YYY mutant; format: cell-based, zebrafish; conditions: 100 mM GABA; similar Po in the YYY mutant as in the FL receptor
T3 sequence (O93430 25-444 F123Y/F183Y/F231Y): T1 sequence (O93430 25-444) with F99Y, F159Y, F207Y

[7] = biological target: T4, YGF mutant of zebrafish α1 glycine receptor (Danio rerio, UniProt O93430, F183Y/Y185F); assay: Ligand binding with 3H-strychnine by SPA, YGF mutant in SMA
T4 sequence (O93430 25-444 F183Y/Y185F): T1 sequence (O93430 25-444) with F159Y, Y161F

[8] = biological target: T5, FL receptor (full-length zebrafish α1 glycine receptor) (Danio rerio, UniProt O93430); assay: Ligand binding with 3H-strychnine by SPA, FL receptor in SMA
T5 sequence (O93430 25-444): T1 sequence (O93430 25-444)

Row | SMILES | EC50 [1] [µM] | Po [2] [%] | current left at the end of the 1-s pulse, range over patches ([3]; 10 mM glycine, 8 patches) | current left at the end of the 1-s pulse, patch shown ([3]; 10 mM glycine, single outside-out patch of Figure S1A) [%] | current left, % of peak, after 1 s application (desensitization), average ([3]; saturating (10 mM) glycine, outside-out patches, n=8 patches) [%] | EC50 [4] [µM] | EC50 ([1]; FL GlyR, whole cell, HEK293A, -40 mV, ± SEM, n≥6 cells) [µM] | increase of glycine EC50 by mutation of Ser294 to cysteine [5] | agonist efficacy (Po) in YYY mutant compared with FL receptor [6] | Ki [7] [µM] | Ki [8] [µM]
1 | NCCS(=O)(=O)O [taurine] | 1050 ± 80 | 95 ± 5 | – | – | – | – | – | – | – | – | –
2 | NCC(=O)O [glycine] | – | – | 17–89% | 17 | 57 ± 8 | 33 ± 3 | 190 ± 20 | ~ 5 fold | – | – | –
3 | NCCCC(=O)O [GABA, γ-amino butyric acid] | 28400 ± 900 | 92 ± 2 | – | – | – | – | – | – | remained a weak partial agonist | 180 ± 70 | 1410 ± 940
